{"source": "paper PMC9628931", "about": "(Chemical Science, 2022)", "key": {"AsAKS1 (BAHD3, 43565_t)": {"target": "T1, AsAKS1 (BAHD3, 43565_t) (Alstonia scholaris, UniProt A0A9E7S5E3)", "T1 sequence (A0A9E7S5E3 1-419)": "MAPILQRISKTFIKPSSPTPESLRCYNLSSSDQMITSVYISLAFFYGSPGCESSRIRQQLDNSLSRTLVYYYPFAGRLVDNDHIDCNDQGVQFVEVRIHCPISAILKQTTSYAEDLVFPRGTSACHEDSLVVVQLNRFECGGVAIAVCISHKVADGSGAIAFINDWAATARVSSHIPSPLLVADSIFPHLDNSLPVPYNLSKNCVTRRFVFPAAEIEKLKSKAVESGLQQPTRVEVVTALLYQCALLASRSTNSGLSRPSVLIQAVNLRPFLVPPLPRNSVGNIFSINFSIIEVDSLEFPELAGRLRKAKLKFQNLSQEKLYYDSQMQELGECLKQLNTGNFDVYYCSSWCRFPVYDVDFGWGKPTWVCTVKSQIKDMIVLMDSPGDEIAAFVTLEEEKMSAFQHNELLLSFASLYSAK", "assay": "LCMS detection of akuammiline", "format": "biochemical", "details": "co-substrate rhazimol"}, "AsAKS2 (BAHD5, 37058_t)": {"target": "T2, AsAKS2 (BAHD5, 37058_t) (Alstonia scholaris, UniProt A0A9E7LUL3)", "T2 sequence (A0A9E7LUL3 1-450)": "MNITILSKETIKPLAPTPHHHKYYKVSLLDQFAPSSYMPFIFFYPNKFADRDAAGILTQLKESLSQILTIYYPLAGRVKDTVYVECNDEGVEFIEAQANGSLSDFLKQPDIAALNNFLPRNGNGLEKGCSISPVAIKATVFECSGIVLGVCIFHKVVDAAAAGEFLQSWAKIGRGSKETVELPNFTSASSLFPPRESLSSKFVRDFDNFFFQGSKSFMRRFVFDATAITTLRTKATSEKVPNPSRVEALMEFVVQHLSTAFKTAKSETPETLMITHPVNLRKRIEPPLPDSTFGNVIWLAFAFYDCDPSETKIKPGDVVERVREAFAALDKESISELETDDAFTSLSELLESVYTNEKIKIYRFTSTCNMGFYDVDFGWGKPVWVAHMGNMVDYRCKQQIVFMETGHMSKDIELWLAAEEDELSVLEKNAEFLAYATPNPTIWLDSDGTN", "assay": "LCMS detection of akuammiline", "format": "biochemical", "details": "co-substrate rhazimol"}}}
{"smiles": "CC(=O)SCCNC(=O)CCNC(=O)[C@H](O)C(C)(C)COP(=O)(O)OP(=O)(O)OC[C@H]1O[C@@H](n2cnc3c(N)ncnc32)[C@H](O)[C@@H]1OP(=O)(O)O", "note": "[acetyl-CoA]", "values": [{"measurement": "LCMS detection of akuammiline", "setting": "AsAKS1 (BAHD3, 43565_t)", "result": "The BAHD candidates were assayed by incubation with rhazimol and acetyl-CoA"}, {"measurement": "LCMS detection of akuammiline", "setting": "AsAKS2 (BAHD5, 37058_t)", "result": "The BAHD candidates were assayed by incubation with rhazimol and acetyl-CoA"}]}
